{"source": "patent US4198424A", "about": "“Substituted 1-phenyl-2-pyrrolidin-2-yl-ethanols, their synthesis, their use and their compositions” (Byk Gulden Lomberg Chemische Fabrik GmbH, priority 1977, dated 1980)", "key": {"albino mice [1]": {"test_system": "albino mice", "assay": "Tail-Flick test (analgesia, mouse)", "type": "in vivo", "conditions": "po, per os, dose prolonging reaction time by 50%", "description": "(§1) (b) Tail-Flick test: a thermal pain is caused at the tail root of female albino mice or rats with a focused heat ray, and the time until the tail is drawn away is recorded with a stop watch. Normally, it lies in the range of from 4 to 5 seconds. The substances tested cause delayed reaction to the heat pain, i.e. reduced thermal-pain reaction. The dose which prolongs the reaction time by 50% was determined. Literature: D'Amour, F. E., and Smith, D. L., J. Pharmacol. Exp. Ther., 72 (1941) 74."}, "[2]": {"assay": "Determination of the lethal effect (LD50, oral, mouse)", "conditions": "in vivo, per os, 48 hours observation", "description": "The toxicity investigations were carried out on female NMRI mice: body weight 22 to 26 g. The animals received food and water (Altromin®) ad libitum. The substances to be tested were administered orally with the oesophageal sound as solutions of various concentration in a volume of from 10 to 20 ml/kg; 5 animals per dose were kept in Makrolon® cages, Type II. The observation duration was 48 hours. The DL50, the dose with which 50% of the animals died, was determined graphically from the dose effect curve."}, "albino mice [3]": {"test_system": "albino mice", "assay": "Hot plate test (analgesia, mouse)", "type": "in vivo", "conditions": "po, per os; for ED50: dose prolonging reaction time by 50%; for ED40: *ED40 values, read-out: ED40 Hot plate (values marked *)", "description": "(a) Hot plate test: female albino mice were placed on a 50° C. hot plate and the reaction time until they licked their paws was recorded with a stop watch. Normal values lie in the range of from 7 to 8 seconds. The substances tested cause delayed reaction to the heat stimulus, i.e. reduced thermal-pain sensitivity. The dose which prolongs the reaction time by 50% was determined. Literature: Eddy, N. B., and Leimbach, D., J. Pharmacol. Exp. Ther., 107 (1953) 385."}, "albino mice [4]": {"test_system": "albino mice", "assay": "Writhing test (acetic acid writhing, analgesia, mouse)", "type": "in vivo", "conditions": "po, per os; for ED50: dose reducing number of writhings by 50%; for ED40: *ED40 values, read-out: ED40 Writhing (values marked *)", "description": "(c) Writhing test (acetic acid writhing): intraperitoneal injection of 0.2 ml/20 g mouse of a 0.75% strength acetic acid solution induces (in albino mice) a typical syndrome, called writhing, which proceeds over the body with dorsal flection. These writhings, which occur in the course of the first half hour after administration, are counted in the space of time of from 5 to 20 minutes after administration. The substances tested cause a reduction of the number of writhing syndromes. […] Literature: Koster, Anderson, Fed. Proc., 18 (1959) 42."}, "[5]": {"conditions": "Saelens et al., Arch. Int. Pharmacodyn. Ther., 190 (1971) 213; cited from earlier work"}, "mice": {"test_system": "mice", "assay": "Withdrawal jumping of mice after treatment and intraperitoneal application of naloxone", "type": "in vivo, mouse", "conditions": "for % of the animals reacting with \"jumping\": naloxone intraperitoneal, 3 and 6 given 200 mg/kg twice daily over 5 weekdays, NaCl control 20; for withdrawal jumping after naloxone (in words): 200 mg/kg twice daily over 5 weekdays, naloxone 30 mg/kg i.p. 1 hour after last dose", "description": "(§2) According to Way et al. [J. Pharmacol. Exp. Ther., 167 (1969) 1] mice, which are dependent on analgesics with a morphine-like effect, react with withdrawal jumping immediately after intraperitoneal administration of naloxone. According to Saelens and co-workers [Arch. Int. Pharmacodyn. […] 2 cannot be tested accordingly because of its toxicity.\n(§3) 3 and 6 were administered to mice [200 mg/kg twice daily over 5 weekdays]."}, "rats": {"test_system": "rats", "assay": "Tail-Flick test (analgesia, rat)", "type": "in vivo", "conditions": "po, per os, dose prolonging reaction time by 50%", "description": "as §1"}, "[6]": {"assay": "Withdrawal jumping of mice after treatment and intraperitoneal application of naloxone", "type": "in vivo, mouse", "conditions": "mouse, in vivo, not testable for jumping, read-out: lethality in withdrawal jumping test", "description": "as §2, §3"}, "albino mice [7]": {"test_system": "albino mice", "assay": "Tail-Flick test (analgesia, mouse)", "type": "in vivo", "conditions": "po, per os, *ED40 values, read-out: ED40 Tail-Flick (values marked *)"}}}
{"compound": "COc1cccc([C@H](O)C[C@@H]2CCCN2C)c1", "note": "(relative stereo) [Compound 4, (R*,S*)-1-(3-methoxyphenyl)-2-(1-methyl-2-pyrrolidinyl)-ethanol]", "values": [{"measurement": "ED50", "setting": "albino mice [1]", "value": 60, "unit": "mg/kg"}, {"measurement": "LD50 at 48 h", "setting": "[2]", "value": 420, "unit": "mg/kg"}, {"measurement": "ED50", "setting": "albino mice [3]", "value": 100, "unit": "mg/kg"}, {"measurement": "ED50", "setting": "albino mice [4]", "value": 50, "unit": "mg/kg"}]}
{"compound": "COc1cccc([C@H](O)C[C@H]2CCCN2C)c1", "note": "(relative stereo) [Compound 5, (R*,R*)-1-(3-methoxyphenyl)-2-(1-methyl-2-pyrrolidinyl)ethanol]", "values": [{"measurement": "ED50", "setting": "albino mice [1]", "value": 70, "unit": "mg/kg"}, {"measurement": "LD50 at 48 h", "setting": "[2]", "value": 490, "unit": "mg/kg"}, {"measurement": "ED50", "setting": "albino mice [3]", "value": 50, "unit": "mg/kg"}, {"measurement": "ED50", "setting": "albino mice [4]", "value": 40, "unit": "mg/kg"}]}
{"compound": "Cc1cccc([C@H](O)C[C@@H]2CCCN2C)c1", "note": "(relative stereo) [Compound 7, (R*,S*)-1-(3-methylphenyl)-2-(1-methyl-2-pyrrolidinyl)-ethanol]", "values": [{"measurement": "ED50", "setting": "albino mice [1]", "value": 50, "unit": "mg/kg"}, {"measurement": "LD50 at 48 h", "setting": "[2]", "value": 300, "unit": "mg/kg"}, {"measurement": "ED50", "setting": "albino mice [3]", "value": 100, "unit": "mg/kg"}, {"measurement": "ED40", "setting": "albino mice [4]", "value": 75, "unit": "mg/kg"}]}
{"compound": "Cc1cccc([C@H](O)C[C@H]2CCCN2C)c1", "note": "(relative stereo) [Compound 8, (R*,R*)-1-(3-methylphenyl)-2-(1-methyl-2-pyrrolidinyl)-ethanol]", "values": [{"measurement": "ED50", "setting": "albino mice [1]", "value": 10, "unit": "mg/kg"}, {"measurement": "LD50 at 48 h", "setting": "[2]", "value": 320, "unit": "mg/kg"}, {"measurement": "ED40", "setting": "albino mice [3]", "value": 100, "unit": "mg/kg"}, {"measurement": "ED40", "setting": "albino mice [4]", "value": 75, "unit": "mg/kg"}]}
{"compound": "COc1cccc([C@@H](C[C@@H]2CCCN2C)OC(C)=O)c1", "note": "(relative stereo) [Compound 13, (R*,S*)-acetic acid-[1-(3-methoxyphenyl)-2-(1-methyl-2-pyrrolidinyl)-ethyl]-ester]", "values": [{"measurement": "LD50 at 48 h", "setting": "[2]", "value": 440, "unit": "mg/kg"}, {"measurement": "ED40", "setting": "albino mice [4]", "value": 75, "unit": "mg/kg"}]}
{"compound": "CCC(=O)O[C@](Cc1ccccc1)(c1ccccc1)[C@H](C)CN(C)C", "note": "[Compound 1, dextropropoxyphene, reference compound]", "values": [{"measurement": "dependence development", "setting": "[5]", "value": "a dependence development is evidenced"}, {"measurement": "ED50", "setting": "albino mice [1]", "value": 25, "unit": "mg/kg"}, {"measurement": "% of the animals reacting with \"jumping\"", "setting": "mice", "value": 100, "unit": "%"}, {"measurement": "LD50 at 48 h", "setting": "[2]", "value": 140, "unit": "mg/kg"}, {"measurement": "ED50", "setting": "albino mice [3]", "value": 15, "unit": "mg/kg"}, {"measurement": "ED50", "setting": "albino mice [4]", "value": 30, "unit": "mg/kg"}, {"measurement": "ED50", "setting": "rats", "value": 25, "unit": "mg/kg"}]}
{"compound": "CN1CCOC(c2ccccc2)c2ccccc2C1", "note": "(stereo not drawn) [Compound 2, nefopam, reference compound]", "values": [{"measurement": "ED50", "setting": "albino mice [1]", "value": 20, "unit": "mg/kg"}, {"measurement": "mortality", "setting": "[6]", "value": 80, "unit": "%"}, {"measurement": "LD50 at 48 h", "setting": "[2]", "value": 180, "unit": "mg/kg"}, {"measurement": "ED50", "setting": "albino mice [3]", "value": 30, "unit": "mg/kg"}, {"measurement": "ED50", "setting": "albino mice [4]", "value": 25, "unit": "mg/kg"}, {"measurement": "ED50", "setting": "rats", "value": 10, "unit": "mg/kg"}]}
{"compound": "COc1cccc(C(O)CC2CCCN2C)c1", "note": "(stereo not drawn) [Compound 3, 1-(3-methoxyphenyl)-2-(1-methylpyrrolidin-2-yl)-ethanol]", "values": [{"measurement": "ED50", "setting": "albino mice [1]", "value": 25, "unit": "mg/kg"}, {"measurement": "withdrawal jumping after naloxone (in words)", "setting": "mice", "value": "did not lead to withdrawal jumping"}, {"measurement": "% of the animals reacting with \"jumping\"", "setting": "mice", "value": 20, "unit": "%"}, {"measurement": "LD50 at 48 h", "setting": "[2]", "value": 600, "unit": "mg/kg"}, {"measurement": "ED50", "setting": "albino mice [3]", "value": 30, "unit": "mg/kg"}, {"measurement": "ED50", "setting": "albino mice [4]", "value": 15, "unit": "mg/kg"}, {"measurement": "ED50", "setting": "rats", "value": 7, "unit": "mg/kg"}]}
{"compound": "Cc1cccc(C(O)CC2CCCN2C)c1", "note": "(stereo not drawn) [Compound 6, 2-(1-methylpyrrolidin-2-yl)-1-(3-tolyl)ethanol]", "values": [{"measurement": "ED50", "setting": "albino mice [1]", "value": 35, "unit": "mg/kg"}, {"measurement": "withdrawal jumping after naloxone (in words)", "setting": "mice", "value": "did not lead to withdrawal jumping"}, {"measurement": "% of the animals reacting with \"jumping\"", "setting": "mice", "value": 10, "unit": "%"}, {"measurement": "LD50 at 48 h", "setting": "[2]", "value": 420, "unit": "mg/kg"}, {"measurement": "ED50", "setting": "albino mice [3]", "value": 100, "unit": "mg/kg"}, {"measurement": "ED50", "setting": "albino mice [4]", "value": 75, "unit": "mg/kg"}, {"measurement": "ED50", "setting": "rats", "value": 10, "unit": "mg/kg"}]}
{"compound": "COc1cccc(C(O)CC2CCCN2C(C)C)c1", "note": "(stereo not drawn) [Compound 9, 2-(1-isopropyl-2-pyrrolidinyl)-1-(3-methoxyphenyl)ethanol]", "values": [{"measurement": "ED40", "setting": "albino mice [7]", "value": 75, "unit": "mg/kg"}, {"measurement": "LD50 at 48 h", "setting": "[2]", "value": 340, "unit": "mg/kg"}, {"measurement": "ED40", "setting": "albino mice [3]", "value": 100, "unit": "mg/kg"}, {"measurement": "ED50", "setting": "albino mice [4]", "value": 75, "unit": "mg/kg"}]}
{"compound": "CN1CCCC1CC(O)c1cccc(O)c1", "note": "(stereo not drawn) [Compound 10, 1-(3-hydroxyphenyl)-2-(1-methyl-2-pyrrolidinyl)-ethanol]", "values": [{"measurement": "LD50 at 48 h", "setting": "[2]", "value": 420, "unit": "mg/kg"}, {"measurement": "ED50", "setting": "albino mice [4]", "value": 125, "unit": "mg/kg"}]}
{"compound": "CN1CCCC1CC(O)c1cccc(Cl)c1", "note": "(stereo not drawn) [Compound 11, 1-(3-chlorophenyl)-2-(1-methyl-2-pyrrolidinyl)-ethanol]", "values": [{"measurement": "ED50", "setting": "albino mice [1]", "value": 65, "unit": "mg/kg"}, {"measurement": "LD50 at 48 h", "setting": "[2]", "value": 330, "unit": "mg/kg"}, {"measurement": "ED50", "setting": "albino mice [4]", "value": 125, "unit": "mg/kg"}]}
{"compound": "CCCCCCN1CCCC1CC(O)c1cccc(OC)c1", "note": "(stereo not drawn) [Compound 12, 2-(1-n-hexyl-2-pyrrolidinyl)-1-(3-methoxyphenyl)-ethanol]", "values": [{"measurement": "ED50", "setting": "albino mice [1]", "value": 70, "unit": "mg/kg"}, {"measurement": "LD50 at 48 h", "setting": "[2]", "value": 180, "unit": "mg/kg"}, {"measurement": "ED40", "setting": "albino mice [4]", "value": 75, "unit": "mg/kg"}]}
